# Results reported in the NIST ThermoML archive (doi:10.1021/je300873x).
# ± gives the expanded uncertainty stated by the source.
# Test: mn = molality of the nth substance listed, in mol/kg
# Settings: for surface tension liquid-gas: Pendant drop shape; for electrical conductivity: Liquid, Digital conductivity meter
smiles,measurement,setting,value
CCCCCCCCCCCC[N+](C)(C)CCO.[Br-] [dodecyl(2-hydroxyethyl)dimethylammonium bromide] + O,surface tension liquid-gas,"298.15 K, m1 = 0.001",68.12 ± 0.61 mN/m
same,surface tension liquid-gas,"298.15 K, m1 = 0.00201",63.05 ± 0.57 mN/m
same,surface tension liquid-gas,"298.15 K, m1 = 0.00402",54.51 ± 0.5 mN/m
same,surface tension liquid-gas,"298.15 K, m1 = 0.00602",49.15 ± 0.46 mN/m
same,surface tension liquid-gas,"298.15 K, m1 = 0.00803",45.74 ± 0.43 mN/m
same,surface tension liquid-gas,"298.15 K, m1 = 0.01004",42.61 ± 0.41 mN/m
same,surface tension liquid-gas,"298.15 K, m1 = 0.01205",39.74 ± 0.39 mN/m
same,surface tension liquid-gas,"298.15 K, m1 = 0.01305",38.84 ± 0.38 mN/m
same,surface tension liquid-gas,"298.15 K, m1 = 0.01506",38.78 ± 0.38 mN/m
same,surface tension liquid-gas,"298.15 K, m1 = 0.01707",38.7 ± 0.38 mN/m
same,surface tension liquid-gas,"298.15 K, m1 = 0.02009",38.51 ± 0.38 mN/m
same,surface tension liquid-gas,"298.15 K, m1 = 0.03014",38.4 ± 0.38 mN/m
same,surface tension liquid-gas,"298.15 K, m1 = 0.05027",38.38 ± 0.38 mN/m
same,electrical conductivity,"298.15 K, m1 = 0.00949",0.0809 ± 0.0001 S/m
same,electrical conductivity,"298.15 K, m1 = 0.00996",0.0847 ± 0.0001 S/m
same,electrical conductivity,"298.15 K, m1 = 0.01049",0.0889 ± 0.0001 S/m
same,electrical conductivity,"298.15 K, m1 = 0.01107",0.0935 ± 0.0001 S/m
same,electrical conductivity,"298.15 K, m1 = 0.01172",0.0987 ± 0.0001 S/m
same,electrical conductivity,"298.15 K, m1 = 0.01246",0.1047 ± 0.0001 S/m
same,electrical conductivity,"298.15 K, m1 = 0.01286",0.1079 ± 0.0001 S/m
same,electrical conductivity,"298.15 K, m1 = 0.01329",0.111 ± 0.0001 S/m
same,electrical conductivity,"298.15 K, m1 = 0.01375",0.1138 ± 0.0001 S/m
same,electrical conductivity,"298.15 K, m1 = 0.01424",0.116 ± 0.0001 S/m
same,electrical conductivity,"298.15 K, m1 = 0.01476",0.1177 ± 0.0001 S/m
same,electrical conductivity,"298.15 K, m1 = 0.01533",0.1196 ± 0.0001 S/m
same,electrical conductivity,"298.15 K, m1 = 0.01595",0.121 ± 0.0001 S/m
same,electrical conductivity,"298.15 K, m1 = 0.01661",0.1226 ± 0.0001 S/m
same,electrical conductivity,"298.15 K, m1 = 0.01733",0.1248 ± 0.0001 S/m
same,electrical conductivity,"298.15 K, m1 = 0.01812",0.1264 ± 0.0001 S/m
same,electrical conductivity,"298.15 K, m1 = 0.01899",0.1281 ± 0.0001 S/m
same,electrical conductivity,"298.15 K, m1 = 0.01994",0.1302 ± 0.0001 S/m
same,electrical conductivity,"303.15 K, m1 = 0.00945",0.0886 ± 0.0001 S/m
same,electrical conductivity,"303.15 K, m1 = 0.00992",0.093 ± 0.0001 S/m
same,electrical conductivity,"303.15 K, m1 = 0.01045",0.0974 ± 0.0001 S/m
same,electrical conductivity,"303.15 K, m1 = 0.01103",0.1025 ± 0.0001 S/m
same,electrical conductivity,"303.15 K, m1 = 0.01168",0.1068 ± 0.0001 S/m
same,electrical conductivity,"303.15 K, m1 = 0.01241",0.1148 ± 0.0001 S/m
same,electrical conductivity,"303.15 K, m1 = 0.01281",0.1182 ± 0.0001 S/m
same,electrical conductivity,"303.15 K, m1 = 0.01324",0.1212 ± 0.0001 S/m
same,electrical conductivity,"303.15 K, m1 = 0.01369",0.1246 ± 0.0001 S/m
same,electrical conductivity,"303.15 K, m1 = 0.01418",0.128 ± 0.0001 S/m
same,electrical conductivity,"303.15 K, m1 = 0.01471",0.1306 ± 0.0001 S/m
same,electrical conductivity,"303.15 K, m1 = 0.01527",0.1326 ± 0.0001 S/m
same,electrical conductivity,"303.15 K, m1 = 0.01589",0.1346 ± 0.0001 S/m
same,electrical conductivity,"303.15 K, m1 = 0.01655",0.1364 ± 0.0001 S/m
same,electrical conductivity,"303.15 K, m1 = 0.01727",0.1386 ± 0.0001 S/m
same,electrical conductivity,"303.15 K, m1 = 0.01805",0.1407 ± 0.0001 S/m
same,electrical conductivity,"303.15 K, m1 = 0.01892",0.1431 ± 0.0001 S/m
same,electrical conductivity,"303.15 K, m1 = 0.01986",0.1451 ± 0.0001 S/m
same,electrical conductivity,"308.15 K, m1 = 0.00993",0.1022 ± 0.0001 S/m
same,electrical conductivity,"308.15 K, m1 = 0.01046",0.1072 ± 0.0001 S/m
same,electrical conductivity,"308.15 K, m1 = 0.01104",0.112 ± 0.0001 S/m
same,electrical conductivity,"308.15 K, m1 = 0.01169",0.1179 ± 0.0001 S/m
same,electrical conductivity,"308.15 K, m1 = 0.01242",0.1251 ± 0.0001 S/m
same,electrical conductivity,"308.15 K, m1 = 0.01282",0.1293 ± 0.0001 S/m
same,electrical conductivity,"308.15 K, m1 = 0.01325",0.1334 ± 0.0001 S/m
same,electrical conductivity,"308.15 K, m1 = 0.0137",0.1371 ± 0.0001 S/m
same,electrical conductivity,"308.15 K, m1 = 0.01419",0.1408 ± 0.0001 S/m
same,electrical conductivity,"308.15 K, m1 = 0.01472",0.1443 ± 0.0001 S/m
same,electrical conductivity,"308.15 K, m1 = 0.01529",0.1472 ± 0.0001 S/m
same,electrical conductivity,"308.15 K, m1 = 0.0159",0.1496 ± 0.0001 S/m
same,electrical conductivity,"308.15 K, m1 = 0.01656",0.152 ± 0.0001 S/m
same,electrical conductivity,"308.15 K, m1 = 0.01728",0.1541 ± 0.0001 S/m
same,electrical conductivity,"308.15 K, m1 = 0.01807",0.1567 ± 0.0001 S/m
same,electrical conductivity,"308.15 K, m1 = 0.01893",0.1595 ± 0.0001 S/m
same,electrical conductivity,"308.15 K, m1 = 0.01987",0.1621 ± 0.0001 S/m
same,electrical conductivity,"313.15 K, m1 = 0.01044",0.1171 ± 0.0001 S/m
same,electrical conductivity,"313.15 K, m1 = 0.01102",0.1229 ± 0.0001 S/m
same,electrical conductivity,"313.15 K, m1 = 0.01167",0.1298 ± 0.0001 S/m
same,electrical conductivity,"313.15 K, m1 = 0.0124",0.1376 ± 0.0001 S/m
same,electrical conductivity,"313.15 K, m1 = 0.0128",0.1416 ± 0.0001 S/m
same,electrical conductivity,"313.15 K, m1 = 0.01322",0.1461 ± 0.0001 S/m
same,electrical conductivity,"313.15 K, m1 = 0.01368",0.1507 ± 0.0001 S/m
same,electrical conductivity,"313.15 K, m1 = 0.01417",0.1556 ± 0.0001 S/m
same,electrical conductivity,"313.15 K, m1 = 0.01469",0.1595 ± 0.0001 S/m
same,electrical conductivity,"313.15 K, m1 = 0.01526",0.1638 ± 0.0001 S/m
same,electrical conductivity,"313.15 K, m1 = 0.01587",0.1664 ± 0.0001 S/m
same,electrical conductivity,"313.15 K, m1 = 0.01653",0.1694 ± 0.0001 S/m
same,electrical conductivity,"313.15 K, m1 = 0.01725",0.1723 ± 0.0001 S/m
same,electrical conductivity,"313.15 K, m1 = 0.01803",0.1749 ± 0.0001 S/m
same,electrical conductivity,"313.15 K, m1 = 0.01889",0.1783 ± 0.0001 S/m
same,electrical conductivity,"313.15 K, m1 = 0.01984",0.1813 ± 0.0001 S/m
same,electrical conductivity,"318.15 K, m1 = 0.01042",0.127 ± 0.0001 S/m
same,electrical conductivity,"318.15 K, m1 = 0.01099",0.134 ± 0.0001 S/m
same,electrical conductivity,"318.15 K, m1 = 0.01164",0.1411 ± 0.0001 S/m
same,electrical conductivity,"318.15 K, m1 = 0.01237",0.1496 ± 0.0001 S/m
same,electrical conductivity,"318.15 K, m1 = 0.01277",0.1543 ± 0.0001 S/m
same,electrical conductivity,"318.15 K, m1 = 0.01319",0.1592 ± 0.0001 S/m
same,electrical conductivity,"318.15 K, m1 = 0.01365",0.1643 ± 0.0001 S/m
same,electrical conductivity,"318.15 K, m1 = 0.01414",0.1694 ± 0.0001 S/m
same,electrical conductivity,"318.15 K, m1 = 0.01466",0.174 ± 0.0001 S/m
same,electrical conductivity,"318.15 K, m1 = 0.01523",0.1791 ± 0.0001 S/m
same,electrical conductivity,"318.15 K, m1 = 0.01583",0.1838 ± 0.0001 S/m
same,electrical conductivity,"318.15 K, m1 = 0.01649",0.1877 ± 0.0001 S/m
same,electrical conductivity,"318.15 K, m1 = 0.01721",0.1908 ± 0.0001 S/m
same,electrical conductivity,"318.15 K, m1 = 0.018",0.1933 ± 0.0001 S/m
same,electrical conductivity,"318.15 K, m1 = 0.01885",0.1973 ± 0.0001 S/m
same,electrical conductivity,"318.15 K, m1 = 0.0198",0.2012 ± 0.0001 S/m
same,electrical conductivity,"323.15 K, m1 = 0.01039",0.1354 ± 0.0001 S/m
same,electrical conductivity,"323.15 K, m1 = 0.01097",0.1447 ± 0.0001 S/m
same,electrical conductivity,"323.15 K, m1 = 0.01162",0.1524 ± 0.0001 S/m
same,electrical conductivity,"323.15 K, m1 = 0.01234",0.1613 ± 0.0001 S/m
same,electrical conductivity,"323.15 K, m1 = 0.01274",0.1661 ± 0.0001 S/m
same,electrical conductivity,"323.15 K, m1 = 0.01317",0.1716 ± 0.0001 S/m
same,electrical conductivity,"323.15 K, m1 = 0.01362",0.1773 ± 0.0001 S/m
same,electrical conductivity,"323.15 K, m1 = 0.01411",0.1832 ± 0.0001 S/m
same,electrical conductivity,"323.15 K, m1 = 0.01463",0.1896 ± 0.0001 S/m
same,electrical conductivity,"323.15 K, m1 = 0.01519",0.1954 ± 0.0001 S/m
same,electrical conductivity,"323.15 K, m1 = 0.0158",0.2012 ± 0.0001 S/m
same,electrical conductivity,"323.15 K, m1 = 0.01646",0.2061 ± 0.0001 S/m
same,electrical conductivity,"323.15 K, m1 = 0.01717",0.21 ± 0.0001 S/m
same,electrical conductivity,"323.15 K, m1 = 0.01795",0.2148 ± 0.0001 S/m
same,electrical conductivity,"323.15 K, m1 = 0.01881",0.2187 ± 0.0001 S/m
same,electrical conductivity,"323.15 K, m1 = 0.01975",0.2216 ± 0.0001 S/m
